According to article PMC8347595, “N-Skatyltryptamines—Dual 5-HT6R/D2R Ligands with Antipsychotic and Procognitive Potential” (Molecules, 2021):
Read-outs that look alike come from different tables or passages of the source.

Columns and labels:
5-HT6R = 5-HT6R (Homo sapiens, UniProt P50406); test: Radioligand binding assay, [3H]-LSD displacement
[1] = Metabolic stability, incubation with mouse liver microsomes; format: in vitro ADME; settings: MLMs, 50 µM, 2 h
Procedure: The murine liver microsomes (MLMs) were purchased from Sigma-Aldrich (St. Louis, MO, USA). To determine metabolic pathways, the tested compounds (50 µM) were incubated with 100 mM Tris-HCl buffer at 37 °C with MLMs (1 mg/mL) and NADPH Regeneration System for 2 h. Reactions were quenched with cold, pure methanol and mixtures were centrifuged 14,000 g for 15 min. The supernatants were analyzed using LCMS. The additional MS ion fragmentation of the product and the substrate were performed to determine the most probable structure of the metabolite.

Human Serotonin 5-HT6R [2] = biological target: T1, Human Serotonin 5-HT6R (Homo sapiens, UniProt P50406); test: 5-HT6R functional assay, antagonistic mode (cAMP induced by 5-CT, 1321N1 cells); format: cell-based
T1 construct: host or cells: 1321N1 (frozen recombinant cells)
Procedure: (§1) The properties of compounds to inhibit cAMP production induced by a 5-HT6R agonist 5-CT (1000 nM) was evaluated. Compounds were tested in triplicate at eight concentrations (10^−11–10^−4 M). The level of cAMP was measured using frozen recombinant 1321N1 cells expressing the Human Serotonin 5-HT6R (PerkinElmer). Total cAMP was measured using the LANCE cAMP Detection Kit (PerkinElmer), according to the manufacturer’s instructions. For quantification of cAMP levels, 2000 cells/well ([…]) were incubated with a mixture of compounds ([…]) for 30 min at room temperature in a 384-well white opaque microtiter plate. After incubation, the reaction was stopped and cells were lysed by the addition of […] of working solution ([…] ULight-anti-cAMP) for 1 h at room temperature. Time-resolved fluorescence resonance energy transfer (TR-FRET) was detected by an Infinite M1000 Pro (Tecan) using instrument settings from the LANCE cAMP Detection Kit manual. […] The agonistic properties of compounds were determined with an analogous procedure, but without stimulation with 5-CT [10, 36].

Male CD1 mice = test: Spontaneous locomotor activity of mice; format: in vivo; settings: i.p.; for Ambulation Scores ± SEM: 60 min, n = 5; for effect on spontaneous locomotor activity in words: all tested doses
Procedure: Mice were placed separately into activity cages for an acclimatization period of 30 min, then they were injected i.p. with compound 15 (0.5, 1, and 3 mg/kg) or compound 18 (0.05, 0.1, 0.5, 1, and 3 mg/kg, respectively. After a further 30 min, they were injected with saline (10 mL/kg). From this point on, the ambulation scores were measured for 60 min. The data are presented as mean ± SEM, n = 5 mice per group. Data were analyzed with one-way ANOVA and Dunnett’s post-hoc. 15: F(3,16) = 1.225, p = 0.333; 18: F(5,24) = 0.791, p = 0.567.
Animals. Male CD1 mice (Charles River, Germany) weighing 20–25 g at the time of arrival were used in behavioral experiments. Animals were kept under standard laboratory conditions (12:12 light: dark cycle, 22 ± 2 °C) with free access to food and water. Animal welfare has been regularly controlled by a veterinarian and animal welfare committee. After two weeks of acclimatization and handling, the experiments began. Experimental groups consisted of four to 10 animals, depending on the procedure. Drugs were administered intraperitoneally (i.p.) at a volume of 10 mL/kg. Experimental assessments were performed by an observer who was blinded to the treatment conditions. All procedures were conducted in accordance with the European Communities Council Directive of 22 September 2010 (2010/63/EU) and Polish legislation acts concerning animal experimentation and were approved by the II Local Ethics Committee by the Maj Institute of Pharmacology, Polish Academy of Sciences in Krakow (272/2019).
Drugs. MK-801 was purchased from Tocris Bioscience, Bristol, UK. MK-801 was dissolved in 0.9% NaCl. Compounds 15 and 18 were dissolved in 0.9% NaCl. All compounds were administered intraperitoneally (i.p.) in a volume of 10 mL/kg. Vehicle-treated animals received appropriate solvents. Vehicle was administered to animals in any case when drug administration was omitted (e.g., control or MK-801-treated groups).
The locomotor activity was recorded individually for each animal in the OPTO-M3 locomotor activity cages described above. Each cage was surrounded with an array of photocell beams. […] Mice were placed separately into activity cages for an acclimatization period of 30 min, then were injected i.p. with compound 15 (0.5, 1, 3 mg/kg) compound 18 (0.05, 0.1, 0.5, 1, 3 mg/kg. After a further 30 min, they were injected with saline (10 mL/kg). From this point on, the ambulation scores were measured for 60 min.

in vitro = settings: PAMPA, pH 7.4
CYP3A4 = biological target: T2, CYP3A4 (Homo sapiens, UniProt P08684); test: CYP3A4 P450-Glo luminescent assay; format: in vitro ADME; settings: compared to ketoconazole; 0.01 to 25 µM
T2 construct: purchased Promega (Madison, WI, USA)
Procedure: The experiments were provided using commercially available luminescent CYP3A4 P450-Glo™ and CYP2D6 P450-Glo™ tests purchased from Promega (Madison, WI, USA). The enzymatic reactions were conducted in polystyrene, flat-bottom Nunc™ MicroWell™ 96-well microplates (Thermo Scientific, Waltham, MA, USA). The assays were carried out according to the procedures provided by the manufacturer, as described previously. Compounds were tested in triplicate at the final concentrations in a range from 0.01 to 25 µM for both isoforms of CYP450. The references of CYP3A4 and CYP2D6 inhibitors (ketoconazole and quinidine, respectively) were tested in a range from 0.001 to 10 µM. Tested compounds were incubated in 100 mM Tris-HCl buffer separately with CYP3A4 and CYP2D6 membranes and the NADPH Regeneration System for 30 min at room temperature in triplicate. The bioluminescent signal was measured after the addition of the Luciferin Detection Reagent by using a microplate reader EnSpire PerkinElmer (Waltham, MA, USA). Both reagents (NADPH Regeneration System and Luciferin Detection Reagent) were purchased from Promega (Madison, WI, USA).

Human Serotonin 5-HT6R [3] = biological target: T1, Human Serotonin 5-HT6R; test: 5-HT6R functional assay, agonistic mode (cAMP, 1321N1 cells); format: cell-based
Procedure: as §1

T1 sequence (P50406 whole entry): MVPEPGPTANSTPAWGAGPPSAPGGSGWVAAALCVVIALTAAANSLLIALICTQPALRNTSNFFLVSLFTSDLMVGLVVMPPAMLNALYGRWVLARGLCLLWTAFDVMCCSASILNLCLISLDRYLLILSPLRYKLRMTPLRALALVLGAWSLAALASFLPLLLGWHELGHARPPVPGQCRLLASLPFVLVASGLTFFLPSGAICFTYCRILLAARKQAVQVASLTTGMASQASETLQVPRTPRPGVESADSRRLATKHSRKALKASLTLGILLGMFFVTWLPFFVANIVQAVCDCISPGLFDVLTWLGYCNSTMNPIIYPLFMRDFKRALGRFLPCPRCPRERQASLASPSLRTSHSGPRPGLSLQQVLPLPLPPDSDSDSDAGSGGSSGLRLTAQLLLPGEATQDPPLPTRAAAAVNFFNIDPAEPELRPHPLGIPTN
Sequence of 5-HT6R (P50406 whole entry): as above
T2 sequence (P08684 whole entry): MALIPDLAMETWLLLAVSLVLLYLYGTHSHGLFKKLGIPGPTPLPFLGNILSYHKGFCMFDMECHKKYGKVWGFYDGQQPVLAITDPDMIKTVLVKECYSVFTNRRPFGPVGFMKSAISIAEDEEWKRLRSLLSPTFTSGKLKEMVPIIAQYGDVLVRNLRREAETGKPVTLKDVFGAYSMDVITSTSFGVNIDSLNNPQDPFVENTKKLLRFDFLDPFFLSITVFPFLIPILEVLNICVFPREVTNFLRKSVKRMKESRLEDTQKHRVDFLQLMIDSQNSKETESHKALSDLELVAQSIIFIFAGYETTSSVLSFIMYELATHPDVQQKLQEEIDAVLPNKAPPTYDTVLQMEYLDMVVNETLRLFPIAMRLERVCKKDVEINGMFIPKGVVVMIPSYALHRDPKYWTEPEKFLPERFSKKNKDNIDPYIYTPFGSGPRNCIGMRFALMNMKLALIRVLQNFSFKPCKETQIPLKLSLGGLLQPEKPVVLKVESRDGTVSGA

| SMILES | Ki (5-HT6R; Ki 5-HT6, Figure 8) [nM] | Ki (5-HT6R; pKi 5-HT6, Table 1) [nM] | Metabolic Pathway, metabolite M1 [1] | Metabolic Pathway, metabolite M2 [1] | Ambulation Scores ± SEM (Male CD1 mice; 0.5 mg/kg) | Ambulation Scores ± SEM (Male CD1 mice; 1 mg/kg) | Ambulation Scores ± SEM (Male CD1 mice; 3 mg/kg) | effect on spontaneous locomotor activity in words (Male CD1 mice) | effect on CYP3A4 activity (CYP3A4) | further results |
| --- | --- | --- | --- | --- | --- | --- | --- | --- | --- | --- |
| Brc1ccc2c(CNCCc3c[nH]c4ccccc34)c[nH]c2c1 [Compound 15] | 102 | 102 | hydroxylation hydroxylation | hydroxylation hydroxylation | 134.9 ± 11.13 | 124.7 ± 21.75 | 91.8 ± 24.61 | did not affect the locomotor activity of mice | only slightly inhibited | PAMPA Pe ± SD (5 h, 200 µM, pH 7.4): 2.42 10^−6 cm/s; permeability in words (PAMPA): rather low Pe value but still higher than norfloxacin; 5-HT6R function in words (antagonism) (Human Serotonin 5-HT6R [2]): antagonist; Kb (Human Serotonin 5-HT6R [2]; antagonistic mode, 5-CT 1000 nM, read-out: 5-HT6 Kb): 131 nM; Papp at 5 h, 200 µM (in vitro): 2.42 ± 0.92 ×10⁻⁶ cm/s |
| Brc1cccc2c(CNCCc3c[nH]c4ccccc34)c[nH]c12 [Compound 18] | 449 | 447 | hydroxylation hydroxylation | hydroxylation hydroxylation | 116.7 ± 13.23 | 85.31 ± 15.86 | 87.79 ± 20.89 | did not influence the spontaneous locomotor activity of mice | only slightly inhibited | PAMPA Pe ± SD (PAMPA permeability assay; 200 µM, PBS pH 7.4, 5 h, triplicate): 3.90 10^−6 cm/s; Papp at 5 h, 200 µM (PAMPA permeability assay; PAMPA, pH 7.4): 3.9 ± 0.56 ×10⁻⁶ cm/s; permeability in words (PAMPA permeability assay; compared to caffeine and norfloxacin): rather low Pe value but still higher than norfloxacin; 5-HT6R function in words (agonism) (Human Serotonin 5-HT6R [3]): agonist; EC50 (Human Serotonin 5-HT6R [3]): 77 nM; Ambulation Scores ± SEM (Male CD1 mice; 0.05 mg/kg): 113.6 ± 34.00; Ambulation Scores ± SEM (Male CD1 mice; 0.1 mg/kg): 131.8 ± 19.50 |
